In patent US8642592B2, “Oxo-heterocyclically substituted alkyl carboxylic acids and use thereof” (Bayer Intellectual Property GmbH, priority 2009, dated 2014):

Columns and labels:
sGC = target: T1, sGC (Rattus norvegicus, UniProt P20595); experiment: sGC-activating activity in the CHO reporter cell in vitro; type: cell-based
T1 construct: expressed in transfected cells; host or cells: CHO reporter cell line
T1 sequence (P20595 1-619): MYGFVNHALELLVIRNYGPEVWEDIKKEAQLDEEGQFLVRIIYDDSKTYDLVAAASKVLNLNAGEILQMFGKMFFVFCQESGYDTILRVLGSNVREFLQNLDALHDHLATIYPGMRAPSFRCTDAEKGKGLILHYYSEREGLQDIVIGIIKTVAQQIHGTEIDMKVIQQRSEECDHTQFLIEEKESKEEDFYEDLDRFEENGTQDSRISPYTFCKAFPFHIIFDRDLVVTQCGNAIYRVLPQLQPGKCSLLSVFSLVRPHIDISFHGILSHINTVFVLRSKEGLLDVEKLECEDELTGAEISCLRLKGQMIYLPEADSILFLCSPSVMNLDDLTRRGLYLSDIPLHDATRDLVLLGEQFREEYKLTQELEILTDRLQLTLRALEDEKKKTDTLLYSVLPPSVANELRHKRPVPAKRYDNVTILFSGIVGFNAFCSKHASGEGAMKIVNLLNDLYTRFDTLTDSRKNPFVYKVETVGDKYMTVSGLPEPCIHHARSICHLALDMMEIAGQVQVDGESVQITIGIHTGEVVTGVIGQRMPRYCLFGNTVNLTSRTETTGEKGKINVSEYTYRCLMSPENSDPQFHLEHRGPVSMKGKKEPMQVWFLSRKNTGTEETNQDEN
T1 sequence (P19686 1-690 partner): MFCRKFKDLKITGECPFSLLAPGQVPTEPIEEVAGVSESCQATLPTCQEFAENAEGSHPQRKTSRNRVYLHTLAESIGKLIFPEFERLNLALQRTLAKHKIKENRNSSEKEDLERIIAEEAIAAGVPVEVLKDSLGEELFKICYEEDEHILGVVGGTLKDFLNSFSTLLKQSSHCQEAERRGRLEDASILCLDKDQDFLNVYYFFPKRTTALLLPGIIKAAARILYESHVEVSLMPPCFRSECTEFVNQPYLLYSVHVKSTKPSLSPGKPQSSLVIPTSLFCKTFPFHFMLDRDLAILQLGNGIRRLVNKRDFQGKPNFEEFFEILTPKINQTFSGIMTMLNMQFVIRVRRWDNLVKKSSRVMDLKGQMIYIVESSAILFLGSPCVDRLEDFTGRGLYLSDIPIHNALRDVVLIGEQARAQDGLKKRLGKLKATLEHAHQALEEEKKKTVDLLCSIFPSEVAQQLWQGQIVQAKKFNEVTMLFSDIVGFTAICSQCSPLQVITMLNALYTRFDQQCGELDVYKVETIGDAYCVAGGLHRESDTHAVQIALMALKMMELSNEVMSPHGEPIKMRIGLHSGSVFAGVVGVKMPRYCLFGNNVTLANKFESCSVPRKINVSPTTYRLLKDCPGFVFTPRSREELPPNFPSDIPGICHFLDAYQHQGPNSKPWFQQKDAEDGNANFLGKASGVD
Description: The cellular action of the compounds according to the invention is determined at a recombinant guanylate cyclase reporter cell line, as described in F. Wunder et al., Anal. Biochem. 339, 104-112 (2005).

Heme-containing sGC = target: T2, Heme-containing sGC (Rattus norvegicus, UniProt P20595); experiment: Stimulation of recombinant soluble guanylate cyclase in vitro, heme-containing enzyme; type: biochemical; details: 0 μM Example 1
T2 construct: made in house; host or cells: baculovirus/Sf9 insect cells
T2 sequence (P20595 1-619): T1 sequence (P20595 1-619)
T2 sequence (P19686 1-690 partner): T1 sequence (P19686 1-690 partner)
From the text: Hoenicka, E. M. Becker, H. Apeler, T. Sirichoke, H. Schroeder, R. Gerzer and J.-P. Stasch, “Purified soluble guanylyl cyclase expressed in a baculovirus/Sf9 system: Stimulation by YC-1, nitric oxide, and carbon oxide”, J. Mol. Med. 77 (1999), 14-23. The heme-free guanylate cyclase is obtained by adding Tween 20 to the sample buffer (0.5% in the final concentration).
The activation of sGC by a test substance is reported as n-fold stimulation of the basal activity.

[1] = target: T3, soluble guanylate cyclase (sGC) (Rattus norvegicus, UniProt P20595); experiment: Stimulation of sGC enzyme activity (PPi/luciferase detection); type: biochemical; details: sGC enzyme in vitro; for EC50: read-out: EC50 (concentration at 50% of maximum efficacy), activating action at the sGC enzyme
T3 construct: made in house; host or cells: baculovirus/Sf9 insect cells
T3 sequence (P20595 1-619): T1 sequence (P20595 1-619)
T3 sequence (P19686 1-690 partner): T1 sequence (P19686 1-690 partner)
Description: Soluble guanylate cyclase (sGC) converts on stimulation GTP into cGMP and pyrophosphate (PPi). PPi is detected with the aid of the assay described below. The signal produced in the assay increases as the reaction progresses and serves as a measure of the sGC enzyme activity under the given stimulation.
To carry out the assay, 29 μl of enzyme solution [0-10 nM soluble guanylate cyclase (prepared according to Honicka et al., J. Mol. Med. 77, 14-23 (1999)) in 50 mM TEA, 2 mM MgCl2, 0.1% BSA (fraction V), 0.005% Brij®, pH 7.5] are initially introduced into a microplate, and 1 μl of the substance to be tested (as a serially diluted solution in DMSO) is added. The mixture is incubated at room temperature for 10 min. Then 20 μl of detection mix [1.2 nM Firefly Luciferase (Photinus pyralis luciferase, Promega), 29 μM dehydroluciferin (prepared according to Bitler & McElroy, Arch. Biochem. Biophys. 72, 358 (1957)), 122 μM luciferin (Promega), 153 μM ATP (Sigma) and 0.4 mM DTT (Sigma) in 50 mM TEA, 2 mM MgCl2, 0.1% BSA (fraction V), 0.005% Brij®, pH 7.5] are added. The enzyme reaction is started by adding 20 μl of substrate solution [1.25 mM guanosine 5′-triphosphate (Sigma) in 50 mM TEA, 2 mM MgCl2, 0.1% BSA (fraction V), 0.005% Brij®, pH 7.5] and measured continuously in a luminometer. The extent of the stimulation by the substance to be tested can be determined relative to the signal of the unstimulated reaction.
The activation of heme-free guanylate cyclase is examined by addition of 25 μM of 1H-1,2,4-oxadiazolo[4,3-a]quinoxalin-1-one (ODQ) to the enzyme solution and subsequent incubation for 30 minutes and compared to the stimulation of the native enzyme.

saphenous artery = experiment: Vasorelaxant effect in vitro (phenylephrine-contracted artery rings); parameters: species or system Rabbits; details: Oryctolagus cuniculus; concentration reducing phenylephrine-induced contraction of rabbit saphenous artery rings by 50%
Description: Rabbits are anesthetized and sacrificed by intravenous injection of thiopental sodium (about 50 mg/kg) and exsanguinated. The saphenous artery is removed and divided into rings 3 mm wide. The rings are mounted singly on in each case a pair of triangular hooks open at the end and made of 0.3 mm-thick special wire (Remanium®). Each ring is placed under an initial tension in 5 ml organ baths with Krebs-Henseleit solution which is at 37° C., is gassed with carbogen and has the following composition: NaCl 119 mM; KCl 4.8 mM; CaCl2×2 H2O 1 mM; MgSO4×7 H2O 1.4 mM; KH2PO4 1.2 mM; NaHCO3 25 mM; glucose 10 mM; bovine serum albumin 0.001%. The force of contraction is detected with Statham UC2 cells, amplified and digitized via A/D converters (DAS-1802 HC, Keithley Instruments, Munich) and recorded in parallel on chart recorders. Contractions are induced by addition of phenylephrine.
After several (generally 4) control cycles, the substance to be investigated is added in each further run in increasing dosage, and the level of the contraction achieved under the influence of the test substance is compared with the level of the contraction reached in the last preceding run. The concentration necessary to reduce the contraction reached in the preceding control by 50% is calculated from this (IC50). The standard application volume is 5 μl. The proportion of DMSO in the bath solution corresponds to 0.1%.

MEC (minimum effective concentration), sGC-activating activity in the CHO reporter cell (sGC) [nM]	MEC (minimum effective concentration), activating action at the sGC enzyme [1] [nM]	EC50 [1] [µM]	Structure (SMILES)	other results
100	–	–	O=C(O)CCCCCNC(=O)C(c1ccc(CN2N=C(c3ccccc3)OCC2=O)cc1)C1CCCC1 (stereo not drawn) [Example 19, 6-[(Cyclopentyl{4-[(5-oxo-2-phenyl-5,6-dihydro-4H-1,3,4-oxadiazin-4-yl)methyl]phenyl}acetyl)-amino]hexanoic Acid]	–
30	–	–	O=C(O)CC1(CCCNC(=O)C(c2ccc(CN3N=C(c4ccccc4)OCC3=O)cc2)C2CCCC2)CC1 (stereo not drawn) [Example 18, (1-{3-[(Cyclopentyl{4-[(5-oxo-2-phenyl-5,6-dihydro-4H-1,3,4-oxadiazin-4-yl)methyl]phenyl}-acetyl)amino]propyl}cyclopropyl)acetic Acid]	–
100	–	–	CC(CCCCNC(=O)C(c1ccc(CN2N=C(c3ccccc3)OCC2=O)cc1)C1CCCC1)C(=O)O (single isomer, unassigned; (+)) [Example 11, (+)-6-{[2-cyclopentyl-2-{4-[(5-oxo-2-phenyl-5,6-dihydro-4H-1,3,4-oxadiazin-4-yl)methyl]phenyl}-acetyl]amino}-2-methylhexanoic acid]	–
–	–	–	O=c1onc2cnc3ccccc3n12 [ODQ, 1H-1,2,4-oxadiazolo-(4,3a)-quinoxalin-1-one, reference compound]	Stimulation (n-fold) of heme-containing sGC by ODQ alone (Heme-containing sGC; 10 μM ODQ): 3.0 n-fold
1	5.5	0.184	CC(C(C(=O)NCCCCC1(C(=O)O)CC1)c1ccc(CN2N=C(c3ccccc3)OCC2=O)cc1)C(F)(F)F (stereo not drawn) [Example 24, 1-{4-[(4,4,4-trifluoro-3-methyl-2-{4-[(5-oxo-2-phenyl-5,6-dihydro-4H-1,3,4-oxadiazin-4-yl)methyl]-phenyl}-butanoyl)amino]butyl}cyclopropanecarboxylic acid]	–
3	13	0.65	O=C(NCCCCC1(C(=O)O)CC1)C(c1ccc(Cn2nc(-c3ccccc3)ccc2=O)cc1)C1CCCC1 (stereo not drawn) [Example 20]	IC50 (saphenous artery): 0.07 µM
20	–	–	O=C(NC/C=C/CC1(C(=O)O)CC1)C(c1ccc(CN2N=C(c3ccccc3)OCC2=O)cc1)C1CCCC1 (single isomer, unassigned; (-)) [Example 15]	–
6.5	58	1.5	CCC(C)C(C(=O)NCCCCC1(C(=O)O)CC1)c1ccc(CN2N=C(c3ccccc3)OCC2=O)cc1 (single isomer, unassigned; (+)) [Example 5, (+)-1-(4-{[3-methyl-2-{4-[(5-oxo-2-phenyl-5,6-dihydro-4H-1,3,4-oxadiazin-4-yl)methyl]phenyl}-pentanoyl]amino}butyl)cyclopropanecarboxylic acid]	IC50 (saphenous artery): 0.297 µM
–	–	–	CCN(CC)[N+]([O-])=NO [DEA/NO, 2-(N,N-diethylamino)diazenolate 2-oxide, reference compound]	Stimulation (n-fold) of heme-containing sGC by DEA/NO alone (Heme-containing sGC; 0.1 μM DEA/NO): 22.2 n-fold
100	–	–	CC(CCCCNC(=O)C(c1ccc(CN2N=C(c3ccccc3)OCC2=O)cc1)C1CCCC1)C(=O)O (single isomer, unassigned; (+)) [Example 10, (+)-6-{[2-cyclopentyl-2-{4-[(5-oxo-2-phenyl-5,6-dihydro-4H-1,3,4-oxadiazin-4-yl)methyl]phenyl}-acetyl]amino}-2-methylhexanoic acid]	–
